# Experiments:
# [1] = target: Casein kinase 1 delta (CSKN1D) (Homo sapiens, UniProt P48730); assay: Casein kinase assay, CK1 delta; assay type: biochemical; details: recombinant CSKN1D 5 nM, ATP 10 μM
# [2] = target: Casein kinase 1 epsilon (CSKN1E) (Homo sapiens, UniProt P49674); assay: Casein kinase assay, CK1 epsilon; assay type: biochemical; details: recombinant CSKN1E 30 nM, ATP 10 μM
# [3] = tested on: Hedgehog signaling pathway; assay: Hedgehog reporter assay (Gli Reporter - NIH3T3 Cell Line); assay type: cell-based; details: Mus musculus; Gli reporter NIH3T3 cells, murine SHH stimulation, 24 h; read-out: HH Assay
# Experimental: In order to investigate the potency of test compounds to inhibit the Hedgehog signaling pathway, a Gli-Reporter assay was performed.
# The “Gli Reporter—NIH3T3 Cell Line” contains the firefly luciferase gene under the control of Gli responsive elements stably integrated into murine NIH3T3 cells (cells purchased from Amsbio). The luciferase expression correlates with activation of the hedgehog signaling pathway. This cell line is validated for its response to stimulation with murine Sonic Hedgehog and to treatment with inhibitors of the hedgehog signaling pathway. A multiplexed viability assay was used to discriminate inhibition on the pathway activity from cell toxicity.
# Growth Medium: DMEM, 10% Calf Serum, 1% Penicillin/Streptomycin 500 μg/ml Geneticin (G418 Stock 50 mg/ml).
# 25.000 cells per well were seeded into a white 96 well plate in 100 μl growth medium and incubated over night at 37° C. and 5% CO2. After removing the supernatant the test compounds and controls (known GLI inhibitor, e.g. GANT-61) were added in different concentrations in a final volume of 45 μl and incubated for 1 h at 37° C. and 5% CO2. For the stimulation of the Hedgehog pathway 5 μl of 10 μg/ml concentrated murine sonic hedgehog (SHH) was added to the cells. A final concentration of 1 μg/ml mSHH and 0.1% DMSO was reached per well. After incubation for 24 h at 37° C. the cells were investigated for viability and reporter activity.
# Viability: For the determination of the viability of the treated cells the CellTiter-Fluor Kit from Promega was used. Essentially, only proteases of viable cells are able to cleave the cell-permeant substrate Gly-Phe-AFCoumarin (GF-AFC). By this cleavage the fluorescent AFC is set free and can be detected in a fluorescence reader. For this assay 10 μl of GF-AFC substrate (CellTiter-Fluor, Promega #G6082) was diluted in 2 ml assay buffer from the CellTiter-Fluor Kit and 10 μl of this dilution was added per well to the cells and incubated for 30 min at 37° C. The fluorescence was measured with excitation at 380-400 nm and emission at 505 nm.
# Reporter activity: The firefly luciferase reporter activity was detected with the ONE-Glo™ Luciferase Assay System from Promega. For this assay 50 μl ONE-Glo luciferase reagent (Promega #E6120, contains cell lysis buffer and luciferin) was added to each well and incubated at room temperature for 5 min. Luminescence was detected in a plate reader and served as a degree for reporter activity.
# Chain of Casein kinase 1 epsilon (CSKN1E) (P49674 whole entry): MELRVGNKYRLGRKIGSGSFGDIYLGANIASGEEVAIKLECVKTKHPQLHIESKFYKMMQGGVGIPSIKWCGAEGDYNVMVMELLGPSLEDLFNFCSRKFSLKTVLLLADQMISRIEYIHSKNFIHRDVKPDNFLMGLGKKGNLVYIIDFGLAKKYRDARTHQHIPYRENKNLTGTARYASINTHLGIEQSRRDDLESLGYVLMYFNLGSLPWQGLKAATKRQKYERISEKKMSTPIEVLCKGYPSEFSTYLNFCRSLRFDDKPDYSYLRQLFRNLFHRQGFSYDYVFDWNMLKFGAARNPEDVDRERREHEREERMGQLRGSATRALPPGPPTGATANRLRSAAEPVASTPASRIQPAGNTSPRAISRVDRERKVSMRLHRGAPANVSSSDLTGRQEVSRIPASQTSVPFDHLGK
# Chain of Casein kinase 1 delta (CSKN1D) (P48730 whole entry): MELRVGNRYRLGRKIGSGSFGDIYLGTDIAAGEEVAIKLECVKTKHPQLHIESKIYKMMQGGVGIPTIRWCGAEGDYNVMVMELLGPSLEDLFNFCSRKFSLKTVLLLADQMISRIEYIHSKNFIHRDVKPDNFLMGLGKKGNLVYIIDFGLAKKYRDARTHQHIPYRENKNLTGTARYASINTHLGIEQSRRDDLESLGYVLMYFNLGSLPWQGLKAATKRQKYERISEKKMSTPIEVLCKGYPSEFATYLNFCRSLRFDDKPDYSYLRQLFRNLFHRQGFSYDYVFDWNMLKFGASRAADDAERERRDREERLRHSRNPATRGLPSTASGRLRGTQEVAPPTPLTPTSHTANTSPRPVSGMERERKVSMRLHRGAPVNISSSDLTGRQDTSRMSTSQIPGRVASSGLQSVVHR
IC50 [1] [nM],IC50 [2] [nM],IC50 [3] [nM],SMILES
> 1000,> 1000,1000 to 15000,"O=C(Nc1nc2cc3c(cc2[nH]1)OC(F)(F)O3)c1cnccn1 [Compound 27, N-(2,2-difluoro-5H-[1,3]dioxolo[4′,5′:4,5]benzo[1,2-d]imidazol-6-yl)pyrazine-2-carboxamide]"
< 200,< 200,500 to 1000,"O=C(Nc1nc2cc3c(cc2[nH]1)OC(F)(F)O3)c1csc(-c2ccco2)n1 [Compound 6B, N-(2,2-difluoro-5H-[1,3]dioxolo[4′,5′:4,5]benzo[1,2-d]imidazol-6-yl)-2-(furan-2-yl)thiazole-4-carboxamide]"
< 200,< 200,500 to 1000,"O=C(Nc1nc2cc3c(cc2[nH]1)OC(F)(F)O3)c1cc(-c2cccs2)on1 [Compound 138, N-(2,2-difluoro-5H-[1,3]dioxolo[4′,5′:4,5]benzo[1,2-d]imidazol-6-yl)-5-(thiophen-2-yl)isoxazole-3-carboxamide]"
< 200,200 to 1000,≤ 500,"O=C(Nc1nc2cc3c(cc2[nH]1)OC(F)(F)O3)c1csc(-c2ccc3c(c2)CCO3)n1 [Compound 3, N-(2,2-difluoro-5H-[1,3]dioxolo[4′,5′:4,5]benzo[1,2-d]imidazol-6-yl)-2-(2,3-dihydrobenzofuran-5-yl)thiazole-4-carboxamide]"
< 200,< 200,500 to 1000,"COc1cccc(CC(=O)Nc2nc3cc4c(cc3[nH]2)OC(F)(F)O4)c1 [Compound 3B, N-(2,2-difluoro-5H-[1,3]dioxolo[4′,5′:4,5]benzo[1,2-d]imidazol-6-yl)-2-(3-methoxyphenyl)acetamide]"
< 200,< 200,500 to 1000,"O=C(Nc1nc2cc3c(cc2[nH]1)OC(F)(F)O3)c1cccc(-c2noc(C3CC3)n2)c1 [Compound 147, 3-(5-cyclopropyl-1,2,4-oxadiazol-3-yl)-N-(2,2-difluoro-5H-[1,3]dioxolo[4′,5′:4,5]benzo[1,2-d]imidazol-6-yl)-benzamide]"
